From US12509451B2, “Heteroaryl amide inhibitors of CD38” (NAPA THERAPEUTICS LTD., priority 2020, dated 2025)
Where “and” joins values, the source holds several entries; their conditions need not be identical. Equal entries are not always repeated.

Legend:
[1] = biological target: T1, human CD38 enzyme in primary human M1 macrophages (Homo sapiens, UniProt P28907); assay: NAD+ hydrolase activity assay in primary human M1 macrophages; assay type: cell-based; settings: primary human M1 macrophages (LPS stimulated)
T1 construct: The assay utilized whole primary human macrophages (from healthy donors); endogenous in cells; host or cells: primary human macrophages from healthy donors, LPS-stimulated (M1)
T1 sequence (P28907 1-300): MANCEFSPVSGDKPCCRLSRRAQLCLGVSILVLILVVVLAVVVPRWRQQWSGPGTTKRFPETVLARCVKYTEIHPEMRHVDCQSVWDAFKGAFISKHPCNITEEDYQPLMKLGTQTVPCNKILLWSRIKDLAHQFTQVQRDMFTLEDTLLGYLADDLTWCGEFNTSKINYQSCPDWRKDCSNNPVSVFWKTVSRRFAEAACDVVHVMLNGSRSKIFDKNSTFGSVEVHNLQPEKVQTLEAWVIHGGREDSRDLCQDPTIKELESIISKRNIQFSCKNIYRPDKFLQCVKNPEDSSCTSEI
Description: The in vitro potency of Compound 35 against the human CD38 enzyme was determined by a fluorescence-based NAD+ hydrolase activity assay using the NAD+ analog nicotinamide 1,N^6-etheno-adenine dinucleotide (εNAD+) as substrate. The assay utilized: 1) whole primary human CD4+ T cells (from healthy donors) activated with anti-CD3/CD28 antibodies and expressing human CD38; or II) whole primary human macrophages (from healthy donors) stimulated with LPS to polarize in a pro-inflammatory M1 state expressing human CD38. The cells were incubated in the presence of 8 different concentrations of Compound 35 for 10 minutes and the reaction was started adding the substrate εNAD+. The emission of fluorescence was measured at 410-20 nm at 37° C. every minute for 1 hr. The NAD+ hydrolase activity was calculated as the slope of the linear portion of the fluorescence-time curve and used to calculate the IC50 value.
(§1) The in vitro potency of Compound 32 against the human CD38 enzyme was determined by a fluorescence-based NAD+ hydrolase activity assay using the NAD+ analog nicotinamide 1,N6-etheno-adenine dinucleotide (εNAD+) as substrate. The assay utilized whole primary human macrophages (from healthy donors) stimulated with LPS to polarize in a pro-inflammatory M1 state expressing human CD38. […] The emission of fluorescence was measured at 410-20 nm at 37° C. every minute for 1 hr. The NAD+ hydrolase activity was calculated as the slope of the linear portion of the fluorescence-time curve and used to calculate the IC50 value.
as §1, with “39” for “32”, “substrate.” for “substrate. The assay utilized whole primary human macrophages (from healthy donors) stimulated with LPS to polarize in a pro-inflammatory M1 state expressing human CD38.”

[2] = biological target: T2, recombinant mouse CD38 Protein (Mus musculus, UniProt P56528); assay: Fluorescence-based NAD+ cyclase activity assay with mouse recombinant CD38 protein (Assay 4); assay type: biochemical; settings: read-out: Assay 4 Arithmetic mean IC50
T2 construct: purchased R&D System
T2 sequence (P56528 1-304): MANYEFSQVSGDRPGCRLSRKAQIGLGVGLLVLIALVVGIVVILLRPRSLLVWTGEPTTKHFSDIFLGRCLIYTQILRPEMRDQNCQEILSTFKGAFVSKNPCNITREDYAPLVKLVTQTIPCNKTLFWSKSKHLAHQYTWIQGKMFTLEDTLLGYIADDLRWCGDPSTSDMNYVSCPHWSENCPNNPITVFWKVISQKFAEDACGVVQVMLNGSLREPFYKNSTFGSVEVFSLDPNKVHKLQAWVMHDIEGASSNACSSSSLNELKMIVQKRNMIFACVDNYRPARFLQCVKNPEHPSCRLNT
Description: This protocol was modified from de Oliveira et al. (2018) supra.
NAD+ cyclase activity of the […] recombinant CD38 protein treated with test compounds was measured using a fluorescence-based assay. Briefly, recombinant mouse CD38 Protein (R&D System) was resuspended in 44 μl/well of Sucrose-Tris Buffer (Sucrose 0.25 M, Tris pH 7.4 40 mM) and plated in a 96-well black plate (CORNING) at a density of 32 ng/well.
Each test compound was received in a powder state and dissolved in DMSO as a 25 mM stock solution. Each test compound was serially diluted in order to generate a dose-response curve. The dilution series of each test compound in DMSO was prepared at 50 times the concentrations to be assayed. Each test compound was diluted to generate a 5-fold dilution series of 8 concentrations from 100 μM to 32 nM in order to assay 8 final concentrations ranging from 2 μM to 0.64 nM. One μl of the 50× concentration compound series was added to each well of the plate containing 125 ng of protein in Sucrose-Tris buffer.
Each plate had the following intra plate controls: 3 wells containing cells treated with vehicle only (DMSO), 3 wells of cells treated with the reference compounds 78c at a final concentration of 500 nM and 2 wells containing only Sucrose-Tris buffer (used as a background value).
The reaction was started adding nicotinamide guanine dinucleotide (NGD+) (Sigma Aldrich) to reach a final concentration of 150 µM. The samples were excited at 337-15 nm and the emission of fluorescence was measured at 442-20 nm at 37° C. every minute for 1 hr in a Clariostar® microplate reader (BMG LABTECH). NAD+ cyclase activity was calculated as the slope of the linear portion of the fluorescence-time curve using the MARS data analysis software (BMG LABTECH). The data were uploaded in the Collaborative Drug Design (CDD) Software and for each compound the IC50 was calculated by the software. Each compound was tested in 3 independent experiments on 3 separate days to establish the reproducibility of the results. For each plate, the z-factor was also calculated as a plate quality using the CDD software.

Compound	IC50 [1]	IC50 [2] [nM]
O=C(Nc1ccnc(C(F)(F)F)c1)c1cc(OC2CC2)cc(-n2ccnc2)n1 [Compound 32, 4-cyclopropoxy-6-(1H-imidazol-1-yl)-N-(2-(trifluoromethyl)pyridin-4-yl)picolinamide]	3.5 nM and 3.49 nM	–
CN(C)CCOc1cc(C(=O)Nc2ccnc(C(F)(F)F)c2)nc(-n2ccnc2)c1 [Compound 33]	–	1 to 50
CC1(Oc2cc(C(=O)Nc3ccnc(C(F)(F)F)c3)nc(-n3ccnc3)c2)COC1 [Compound 34, 6-(1H-imidazol-1-yl)-4-((3-methyloxetan-3-yl)oxy)-N-(2-(trifluoromethyl)pyridin-4-yl)picolinamide]	–	51 to 1000
COc1cc(C(=O)Nc2ccnc(C(F)(F)F)c2)nc(-n2ccnc2)c1 [Compound 35, 6-(1H-imidazol-1-yl)-4-methoxy-N-(2-(trifluoromethyl)pyridin-4-yl)picolinamide]	2.25 nM	1 to 50
COc1cc(C(=O)Nc2ccnc(C(F)(F)F)c2)nc(-n2ccnc2)n1 [Compound 37, 2-(1H-imidazol-1-yl)-6-methoxy-N-(2-(trifluoromethyl)pyridin-4-yl)pyrimidine-4-carboxamide]	–	51 to 1000
CCOc1cc(C(=O)Nc2ccnc(C(F)(F)F)c2)nc(-n2ccnc2)n1 [Compound 38]	–	51 to 1000
COCCOc1cc(C(=O)Nc2ccnc(C(F)(F)F)c2)nc(-n2ccnc2)n1 [Compound 39, 2-(1H-imidazol-1-yl)-6-(2-methoxyethoxy)-N-(2-(trifluoromethyl)pyridin-4-yl)pyrimidine-4-carboxamide]	3.9 nM and 3.92 nM	1 to 50
O=C(Nc1ccnc(C(F)(F)F)c1)c1cc(OC2CC2)nc(-n2ccnc2)n1 [Compound 40]	–	51 to 1000
O=C(Nc1ccnc(C(F)(F)F)c1)c1cc(C2CC2)nc(-n2ccnc2)n1 [Compound 51, 6-cyclopropyl-2-(1H-imidazol-1-yl)-N-(2-(trifluoromethyl)pyridin-4-yl)pyrimidine-4-carboxamide]	–	1 to 50
